Experimental data reported in patent US5536853A, “Opiate receptor ligands” (Chiron Corporation, priority 1994, dated 1996).

Target: T1, μ-specific opiate receptor (Rattus norvegicus, UniProt P33535)
T1 construct: Rat forebrains were homogenized and washed; from tissue; host or cells: rat forebrain membranes
Assay: in vitro solution-phase radioligand competition assay ([3H]-DAMGO, rat forebrain membranes)
Assay type: binding
Conditions: 1 nM [3H]-DAMGO, pH 7.5, 1 hr room temperature; for inhibition at 0.1 µM: at 100 nM
Protocol: Compounds were screened in vitro using the following assay:
High-affinity ligands for the μ-specific opiate receptor were identified from a diverse peptoid library by testing the pools of compounds in solution-phase radioligand competition assays, and tracing the binding activity to individual compounds by iterative resynthesis and screening of smaller sub-pools.
Rat forebrains were homogenized and washed in 50 mM Tris, pH 7.5 containing 20 mM NaCl, 5 mM EGTA, 2 mM MgCl2, 21 μg/mL aprotinin, 0.5 mg/L leupeptin, 0.7 mg/L pepstatin, 0.2 Mm PMSF. 50 μL of membrane (10 mg/mL protein) were dispensed into 1 mL of 50 mM Tris, pH 7.5, 1 nM [^3 H]-DAMGO and the peptoid mixture. All assays were performed at 100 nM per peptoid.
Nonspecific binding was determined as [^3 H]-DAMGO bound in the presence of 1 μM naloxone. Incubation was for 1 hr at room temperature. Unbound radioactivity was removed by rinsing the membranes on Whatman GF/B glass fiber filters. Each filter was washed 3 times with 3 mL of 50 mM Tris, pH 7.5, 4° C. Filters were soaked overnight in 5 mL of Beckman ReadySafe scintillation cocktail and then counted for one minute in a Wallac 1409 liquid scintillation counter. Assays were performed in duplicate.

T1 sequence (P33535 whole entry): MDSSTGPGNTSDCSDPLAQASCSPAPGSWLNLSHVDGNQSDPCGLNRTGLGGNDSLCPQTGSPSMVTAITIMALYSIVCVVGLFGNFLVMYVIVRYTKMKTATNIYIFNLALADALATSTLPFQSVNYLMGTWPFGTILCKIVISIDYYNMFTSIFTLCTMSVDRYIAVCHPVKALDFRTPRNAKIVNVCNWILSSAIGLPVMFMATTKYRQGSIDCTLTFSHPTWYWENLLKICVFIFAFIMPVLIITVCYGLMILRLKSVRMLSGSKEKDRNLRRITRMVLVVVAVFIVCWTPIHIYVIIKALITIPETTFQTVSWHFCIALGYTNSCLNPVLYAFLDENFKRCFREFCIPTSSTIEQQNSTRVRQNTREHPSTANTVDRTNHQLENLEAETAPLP

| Compound | Ki | inhibition at 0.1 µM |
| --- | --- | --- |
| COc1ccc(CN(CC(=O)N(CCc2ccc(O)cc2)CC(N)=O)C(=O)CNCC(c2ccccc2)c2ccccc2)cc1OC [CHIR-4537, Nbhm-Nddb-Nhtyr] | 45 nM |  |
| NC(=O)CN(CCc1ccc(O)cc1)C(=O)CN(Cc1ccc2c(c1)OCO2)C(=O)CNCC(c1ccccc1)c1ccccc1 [CHIR-4531, Nbhm-Nmdb-Nhtyr] | 7 nM |  |
| COc1cc(CN(CC(=O)N(CCc2ccc(O)cc2)CC(N)=O)C(=O)CNCC(c2ccccc2)c2ccccc2)cc(OC)c1OC [CHIR 4626, Nbhm-Ntrnb-Nhtyr] |  | 86% |
| NC(=O)CN(CCc1ccc(O)cc1)C(=O)CN(Cc1ccc2c(c1)OCO2)C(=O)CNCCC(c1ccccc1)c1ccccc1 [CHIR 4622, Nbhe-Nmdb-Nhtyr] |  | 78% |
| NC(=O)CN(CCc1ccc(O)cc1)C(=O)CN(Cc1ccc2c(c1)OCO2)C(=O)C=CCNCC(c1ccccc1)c1ccccc1 [CHIR 5045, Nvbhm-Nmdb-Nhtyr] |  | 58% |
| CCCCCN(CC(=O)N(CCc1ccc(O)cc1)CC(N)=O)C(=O)CNCC(c1ccccc1)c1ccccc1 [CHIR-4534, Nbhm-Npen-Nhtyr] | 30 nM |  |
| NC(=O)CN(CCc1ccc(O)cc1)C(=O)CN(Cc1ccc2c(c1)OCO2)C(=O)CNCC=C(c1ccccc1)c1ccccc1 [CHIR 5062, Nbvp-Nmdb-Nhtyr] |  | 65% |
| NC(=O)CN(CCc1ccc(O)cc1)C(=O)CN(Cc1ccccc1)C(=O)CNCC(c1ccccc1)c1ccccc1 [CHIR 4627, Nbhm-Nphe-Nhtyr] |  | 90% |
| CC(NCC(c1ccccc1)c1ccccc1)C(=O)N(CC(=O)N(CCc1ccc(O)cc1)CC(N)=O)Cc1ccc2c(c1)OCO2 (stereo not shown) [CHIR 5052, Nbha-Nmdb-Nhtyr] |  | 73% |
| NC(=O)CN(CCc1ccccc1)C(=O)CN(Cc1ccccc1)C(=O)CNCC(c1ccccc1)c1ccccc1 [CHIR 4628, Nbhm-Nphe-Nhphe] |  | 77% |
